Test results from ChEMBL document CHEMBL1201862, “PubChem BioAssay data set” (2004).
Activity calls are given as the source filed them.

How the values were obtained:
[1] = HEp-2 cell cytotoxicity, dose response, cytotoxicity control for RSV inhibitor project, HTS (AID 2410); type: functional; conditions: human respiratory syncytial virus
Vero = assay: cells; type: functional, cell-based; conditions: Chlorocebus sabaeus
[2] = target: Heat shock cognate 71 kDa protein (Homo sapiens, UniProt P11142); assay: In Vitro Hsc70 Dose Response Fluorescence Polarization Assay. [Related pubchem assays: 1072 ]
[3] = target: Heat shock 70 kDa protein 1A (Homo sapiens, UniProt P0DMV8); assay: Hsp70 inhibitors, SAR follow-up, biochemical, fluorescence polarization (AID 1072)
[4] = target: Glyceraldehyde-3-phosphate dehydrogenase (Homo sapiens, UniProt P04406)
[5] = target: 26S proteasome non-ATPase regulatory subunit 14 (Homo sapiens, UniProt O00487); assay: inhibition of proteasome subunit RPN11 – biochemical, fluorescence polarization, uHTS hits, confirmation (AID 602368); type: functional
Prothrombin = Prothrombin (Bos taurus, UniProt P00735); assay: thrombin inhibition, dose response, biochemical, fluorescence polarization, uHTS hits (AID 602369); type: functional
[6] = Counterscreen for IDE inhibitors: Luminescence-based cell-based high throughput dose response assay to identify compounds that are cytotoxic to HEK cells. [Related pubchem assays: 434962 (Primary screen (IDE inhibitors in singlicate)), 449730 (Counterscreen (Cytotoxicity in triplicate)), 435028 (Confirmation (IDE inhibitors in triplicate)) …; type: functional; conditions: HEK293
[7] = target: 72 kDa type IV collagenase (Homo sapiens, UniProt P08253); assay: Dose Response validation of uHTS RPN11 inhibitor hits using a MMP-2 Fluorescence assay.; type: functional
Insulin-degrading enzyme = target: T1, Insulin-degrading enzyme (Homo sapiens, UniProt P14735); assay: Dose Response: Fluorescence polarization-based cell-based high throughput dose response assay for inhibitors of insulin-degrading enzyme (IDE). [Related pubchem assays: 434962 (Primary screen (IDE inhibitors in singlicate)), 449730 (Counterscreen (Cytotoxicity in triplicate)), 435028 (Confirmation (IDE inhibitors in triplicate)), 434984 (Summary …; type: functional
T1 sequence (P14735 whole entry): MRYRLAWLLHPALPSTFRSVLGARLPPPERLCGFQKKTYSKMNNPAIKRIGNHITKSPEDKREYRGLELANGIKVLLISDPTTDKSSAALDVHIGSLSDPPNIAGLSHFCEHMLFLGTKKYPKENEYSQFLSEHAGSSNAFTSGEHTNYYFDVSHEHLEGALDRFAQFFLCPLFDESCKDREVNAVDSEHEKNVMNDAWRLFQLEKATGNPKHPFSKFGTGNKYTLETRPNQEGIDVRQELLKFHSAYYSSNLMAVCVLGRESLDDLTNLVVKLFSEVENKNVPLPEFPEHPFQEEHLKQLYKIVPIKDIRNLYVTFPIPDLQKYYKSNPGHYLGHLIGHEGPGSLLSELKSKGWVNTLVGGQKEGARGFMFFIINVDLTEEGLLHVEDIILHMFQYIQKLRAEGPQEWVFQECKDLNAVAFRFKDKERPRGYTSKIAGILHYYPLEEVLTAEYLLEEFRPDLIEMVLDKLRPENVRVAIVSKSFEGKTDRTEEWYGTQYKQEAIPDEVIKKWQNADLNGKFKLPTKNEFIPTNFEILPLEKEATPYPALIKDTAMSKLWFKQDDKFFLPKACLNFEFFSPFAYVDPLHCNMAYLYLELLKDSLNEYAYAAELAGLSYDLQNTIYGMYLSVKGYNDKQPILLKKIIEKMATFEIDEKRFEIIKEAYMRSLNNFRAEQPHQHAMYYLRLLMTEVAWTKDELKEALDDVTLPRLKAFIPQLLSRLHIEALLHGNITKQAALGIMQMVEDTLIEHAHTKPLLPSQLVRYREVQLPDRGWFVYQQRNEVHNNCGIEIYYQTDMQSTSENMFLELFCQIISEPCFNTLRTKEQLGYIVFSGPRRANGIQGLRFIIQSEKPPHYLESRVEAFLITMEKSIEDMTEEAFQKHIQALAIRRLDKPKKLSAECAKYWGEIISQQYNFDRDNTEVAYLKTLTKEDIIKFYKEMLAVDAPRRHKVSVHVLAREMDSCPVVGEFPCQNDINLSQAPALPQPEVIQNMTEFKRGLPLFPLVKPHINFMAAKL

Cytochrome P450 2C9 = Cytochrome P450 2C9 (Homo sapiens, UniProt P11712)
Fatty acid synthase [8] = target: T2, Fatty acid synthase (Homo sapiens, UniProt P49327); assay: FAS thioesterase domain inhibitors, dose response, biochemical, kinetic fluorescence intensity (AID 624326); type: functional;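 further: rate of fluorescence rise from hydrolysis of a fluorogenic O-methyl fluorescein ester substrate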
Fatty acid synthase [9] = target: T2, Fatty acid synthase; assay: FAS thioesterase domain inhibitors, dose response, biochemical, endpoint fluorescence intensity, uHTS hits (AID 624327); type: functional;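 further: fluorescence from hydrolysis of an O-methyl fluorescein acyl ester substrate by the enzyme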

T2 sequence (P49327 whole entry, the tested form may be a part): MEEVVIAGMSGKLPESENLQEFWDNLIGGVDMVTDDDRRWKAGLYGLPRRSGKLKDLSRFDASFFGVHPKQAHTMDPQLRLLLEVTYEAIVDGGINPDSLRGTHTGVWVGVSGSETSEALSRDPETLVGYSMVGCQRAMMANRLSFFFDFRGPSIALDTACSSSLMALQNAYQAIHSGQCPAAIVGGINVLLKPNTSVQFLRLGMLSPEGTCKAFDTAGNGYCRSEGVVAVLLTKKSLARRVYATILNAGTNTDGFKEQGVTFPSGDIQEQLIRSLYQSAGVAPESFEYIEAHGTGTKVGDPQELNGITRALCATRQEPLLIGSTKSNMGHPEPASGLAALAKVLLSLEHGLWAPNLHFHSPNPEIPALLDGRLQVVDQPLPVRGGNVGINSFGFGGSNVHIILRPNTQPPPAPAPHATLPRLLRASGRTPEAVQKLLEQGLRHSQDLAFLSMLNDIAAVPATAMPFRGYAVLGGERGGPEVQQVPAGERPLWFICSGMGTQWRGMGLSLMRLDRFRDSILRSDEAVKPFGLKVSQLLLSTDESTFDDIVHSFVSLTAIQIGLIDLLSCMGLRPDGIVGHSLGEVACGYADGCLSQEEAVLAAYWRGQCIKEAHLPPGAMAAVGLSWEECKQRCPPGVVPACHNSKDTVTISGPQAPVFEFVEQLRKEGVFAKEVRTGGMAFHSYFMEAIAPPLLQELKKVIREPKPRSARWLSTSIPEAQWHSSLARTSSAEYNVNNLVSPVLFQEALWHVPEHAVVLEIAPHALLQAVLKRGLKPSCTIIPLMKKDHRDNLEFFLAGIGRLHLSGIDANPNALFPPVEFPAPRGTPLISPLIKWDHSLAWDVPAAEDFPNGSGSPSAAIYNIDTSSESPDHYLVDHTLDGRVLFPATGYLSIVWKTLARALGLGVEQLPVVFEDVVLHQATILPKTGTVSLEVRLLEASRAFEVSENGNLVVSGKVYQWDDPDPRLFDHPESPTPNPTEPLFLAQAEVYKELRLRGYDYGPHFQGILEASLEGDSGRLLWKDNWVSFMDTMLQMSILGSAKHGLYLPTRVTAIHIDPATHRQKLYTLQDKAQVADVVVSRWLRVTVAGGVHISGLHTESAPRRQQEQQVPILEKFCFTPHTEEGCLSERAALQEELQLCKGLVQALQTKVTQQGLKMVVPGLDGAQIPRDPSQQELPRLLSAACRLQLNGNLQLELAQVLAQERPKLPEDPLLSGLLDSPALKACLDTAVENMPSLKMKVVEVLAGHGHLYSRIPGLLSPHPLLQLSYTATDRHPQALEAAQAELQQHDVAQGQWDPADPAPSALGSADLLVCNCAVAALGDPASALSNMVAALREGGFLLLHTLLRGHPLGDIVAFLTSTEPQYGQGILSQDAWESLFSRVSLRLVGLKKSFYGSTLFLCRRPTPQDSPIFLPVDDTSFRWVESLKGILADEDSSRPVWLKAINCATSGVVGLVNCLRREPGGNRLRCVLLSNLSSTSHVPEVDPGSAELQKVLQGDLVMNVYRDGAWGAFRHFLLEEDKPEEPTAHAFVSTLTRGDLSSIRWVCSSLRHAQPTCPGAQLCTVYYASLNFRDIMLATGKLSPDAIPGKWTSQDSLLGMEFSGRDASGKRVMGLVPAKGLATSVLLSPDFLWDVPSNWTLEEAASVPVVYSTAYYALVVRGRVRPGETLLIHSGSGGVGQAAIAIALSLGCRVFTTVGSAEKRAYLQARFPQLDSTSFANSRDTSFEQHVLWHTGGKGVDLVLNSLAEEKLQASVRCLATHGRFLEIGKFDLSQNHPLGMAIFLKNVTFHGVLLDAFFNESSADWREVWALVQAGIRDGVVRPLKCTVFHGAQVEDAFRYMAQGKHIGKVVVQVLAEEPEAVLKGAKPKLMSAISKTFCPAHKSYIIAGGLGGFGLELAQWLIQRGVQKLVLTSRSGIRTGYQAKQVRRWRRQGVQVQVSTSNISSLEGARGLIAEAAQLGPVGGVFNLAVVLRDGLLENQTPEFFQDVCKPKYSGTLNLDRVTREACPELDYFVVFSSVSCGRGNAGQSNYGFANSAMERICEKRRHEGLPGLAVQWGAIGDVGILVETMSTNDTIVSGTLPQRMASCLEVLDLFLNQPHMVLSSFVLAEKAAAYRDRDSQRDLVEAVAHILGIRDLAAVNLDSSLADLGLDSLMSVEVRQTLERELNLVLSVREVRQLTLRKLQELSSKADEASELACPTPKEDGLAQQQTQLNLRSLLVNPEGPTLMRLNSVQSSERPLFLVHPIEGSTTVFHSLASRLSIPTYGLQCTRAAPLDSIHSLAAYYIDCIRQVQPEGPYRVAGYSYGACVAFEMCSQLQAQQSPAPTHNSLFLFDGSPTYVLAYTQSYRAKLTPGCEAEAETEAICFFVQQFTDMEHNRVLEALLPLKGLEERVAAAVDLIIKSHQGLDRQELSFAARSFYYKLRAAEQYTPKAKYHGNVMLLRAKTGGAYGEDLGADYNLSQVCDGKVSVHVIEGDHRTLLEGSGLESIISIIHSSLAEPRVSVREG
Sequence of Glyceraldehyde-3-phosphate dehydrogenase (P04406 whole entry): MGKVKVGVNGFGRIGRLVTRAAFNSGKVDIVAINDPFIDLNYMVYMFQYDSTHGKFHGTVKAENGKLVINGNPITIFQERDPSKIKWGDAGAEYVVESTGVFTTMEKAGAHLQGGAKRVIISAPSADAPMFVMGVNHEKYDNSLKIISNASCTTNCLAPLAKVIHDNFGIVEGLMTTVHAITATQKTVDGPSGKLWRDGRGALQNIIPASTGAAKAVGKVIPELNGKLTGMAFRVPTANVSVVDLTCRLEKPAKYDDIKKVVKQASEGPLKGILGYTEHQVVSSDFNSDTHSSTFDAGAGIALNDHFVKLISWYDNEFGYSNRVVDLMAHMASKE
Sequence of Heat shock cognate 71 kDa protein (P11142 whole entry): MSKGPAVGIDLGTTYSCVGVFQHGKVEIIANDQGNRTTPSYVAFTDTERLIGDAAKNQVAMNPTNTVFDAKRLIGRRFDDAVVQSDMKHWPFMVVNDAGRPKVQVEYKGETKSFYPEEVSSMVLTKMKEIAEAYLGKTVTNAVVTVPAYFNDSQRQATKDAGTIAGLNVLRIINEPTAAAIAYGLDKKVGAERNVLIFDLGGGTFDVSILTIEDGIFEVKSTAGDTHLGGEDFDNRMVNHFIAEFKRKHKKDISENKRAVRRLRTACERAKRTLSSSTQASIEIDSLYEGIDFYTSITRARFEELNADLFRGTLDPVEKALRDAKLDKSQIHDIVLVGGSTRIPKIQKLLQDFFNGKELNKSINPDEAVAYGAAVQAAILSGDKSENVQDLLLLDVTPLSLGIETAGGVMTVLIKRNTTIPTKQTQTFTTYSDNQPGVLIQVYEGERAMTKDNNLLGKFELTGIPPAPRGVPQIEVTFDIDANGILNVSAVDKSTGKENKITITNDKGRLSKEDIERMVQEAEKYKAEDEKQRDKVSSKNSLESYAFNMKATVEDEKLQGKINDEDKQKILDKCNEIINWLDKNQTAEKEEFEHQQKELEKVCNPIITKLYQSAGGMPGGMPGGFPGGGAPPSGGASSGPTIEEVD
Sequence of Heat shock 70 kDa protein 1A (P0DMV8 whole entry): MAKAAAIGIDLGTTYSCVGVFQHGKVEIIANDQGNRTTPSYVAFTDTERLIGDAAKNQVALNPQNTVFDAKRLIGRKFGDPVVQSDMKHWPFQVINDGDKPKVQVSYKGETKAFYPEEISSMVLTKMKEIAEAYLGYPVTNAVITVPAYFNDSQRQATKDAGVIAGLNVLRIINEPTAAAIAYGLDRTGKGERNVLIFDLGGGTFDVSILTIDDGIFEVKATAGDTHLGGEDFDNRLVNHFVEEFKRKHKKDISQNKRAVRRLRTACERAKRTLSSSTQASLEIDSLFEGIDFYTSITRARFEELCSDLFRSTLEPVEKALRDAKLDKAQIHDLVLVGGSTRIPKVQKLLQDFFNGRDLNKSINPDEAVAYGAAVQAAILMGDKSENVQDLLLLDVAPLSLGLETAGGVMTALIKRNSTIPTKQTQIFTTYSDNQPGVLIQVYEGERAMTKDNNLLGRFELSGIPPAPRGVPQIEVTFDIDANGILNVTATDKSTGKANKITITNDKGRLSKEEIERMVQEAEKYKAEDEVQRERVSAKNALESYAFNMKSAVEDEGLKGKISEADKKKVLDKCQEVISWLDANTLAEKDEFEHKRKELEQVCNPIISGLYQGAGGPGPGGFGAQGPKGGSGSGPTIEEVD
Sequence of Cytochrome P450 2C9 (P11712 whole entry, the tested form may be a part): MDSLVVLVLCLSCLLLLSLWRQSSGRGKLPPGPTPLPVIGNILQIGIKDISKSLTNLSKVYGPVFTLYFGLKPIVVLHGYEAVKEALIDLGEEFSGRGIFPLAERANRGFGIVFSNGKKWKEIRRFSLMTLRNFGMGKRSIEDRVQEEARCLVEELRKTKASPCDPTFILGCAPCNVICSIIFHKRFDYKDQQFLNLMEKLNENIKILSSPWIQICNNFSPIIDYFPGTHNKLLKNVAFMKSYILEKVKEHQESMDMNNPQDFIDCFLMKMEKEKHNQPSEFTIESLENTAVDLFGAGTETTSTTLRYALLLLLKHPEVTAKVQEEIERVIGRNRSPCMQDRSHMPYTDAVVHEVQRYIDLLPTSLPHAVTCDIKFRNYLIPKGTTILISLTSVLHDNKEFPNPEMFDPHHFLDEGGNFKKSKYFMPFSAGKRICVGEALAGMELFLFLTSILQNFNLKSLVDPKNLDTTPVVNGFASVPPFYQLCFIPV
Sequence of 26S proteasome non-ATPase regulatory subunit 14 (O00487 whole entry): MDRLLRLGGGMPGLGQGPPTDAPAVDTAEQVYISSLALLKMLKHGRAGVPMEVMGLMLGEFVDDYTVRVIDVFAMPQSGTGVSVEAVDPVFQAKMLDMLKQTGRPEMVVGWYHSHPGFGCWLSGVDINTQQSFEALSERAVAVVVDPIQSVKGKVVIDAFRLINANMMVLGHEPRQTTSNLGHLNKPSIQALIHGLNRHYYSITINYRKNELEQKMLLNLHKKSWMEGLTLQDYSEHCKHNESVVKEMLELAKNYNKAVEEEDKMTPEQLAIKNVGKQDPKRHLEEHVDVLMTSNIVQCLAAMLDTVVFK

With `Cc1ccc(C(=O)Nc2ccccc2SCC2CSc3nc4ccccc4c(=O)n32)cc1` (stereo unspecified) the CC50 [1] was 27.7 µM (active), the IC50 (cells) was 11.4 µM (active) and the IC50 (Vero) was 10.4 µM (active).
For `O=C(O)/C=C/c1c2ccc(=O)c(O)c-2oc2c(O)c(O)ccc12`, the IC50 [2] was 2.73 µM (active), the IC50 [3] was 0.332 µM (active) and the IC50 [4] was 15.8 µM (active).
In the case of `COc1ccc(/N=C\c2oc3ccc4ccccc4c3c2O)cc1`, the IC50 [5] is reported as 10 µM (active), the IC50 (Prothrombin) is reported as 3.81 µM (active) and the IC50 [6] is reported as > 55.7 µM (not active). For the same molecule, the IC50 [7] was > 100 µM (inactive) and the IC50 (Insulin-degrading enzyme) was > 55.9 µM (not active).
For `Cc1ccc2cc3cc(C(=O)N4CCCCC4C)oc3nc2c1` (stereo unspecified), the AC50 (Cytochrome P450 2C9) was “inconclusive”, the CC50 [1] was > 50 µM (active) and the IC50 (cells) was 21.4 µM (active). For the same molecule, the IC50 (Fatty acid synthase [8]) was 4.44 µM (active) and the IC50 (Fatty acid synthase [9]) was 2.28 µM (active).
